We go through 21 compounds from ChEMBL document CHEMBL1130548, “Synthesis and structure-activity relationships for a series of substituted pyrrolidine NK1/NK2 receptor antagonists” (Bioorg Med Chem Lett, 1997).

One data set addresses Substance-P receptor (Cavia porcellus, UniProt P30547). Nature of the data set: Binding affinity for NK1 receptor in guinea pig lung was determined by using [125 I]-Bolton Hunter labeled SP.
The species entered for another data set is Rattus norvegicus. The experiment in a line: The relative metabolic stability at 10 uM concentration was determined using rat liver […] fortified with NADPH. It is filed as functional.
The nature of data set [1]: Partition coefficient (logP). It is filed as physicochemical. The conditions noted are these: octanol/water.
A short description of data set [2]: The relative permeability was measured from transport studies using polycarbonate membranes and Dulbecco's modified eagle medium with 10% fetal bovine serum. It is filed as ADME.
The next data set concerns Cavia porcellus. Nature of the data set: The perorally administered compound was evaluated for percentage inhibition of capsaicin induced respiratory effects at 10 mg / kg concentration in guinea pig. The conditions noted are these: po.
Data set [3] can be described thus: The solubility in a […] phosphate buffer solution at pH 7.4. The class given is ADME.
A short description of data set [4]: Partition coefficient (logD). The class given is physicochemical. The conditions noted are these: octanol/water.
Data set [5] is described as follows: The pKa1 value for the compound was determined by titrating in an aqueous solution (ISA). The class given is physicochemical. The conditions noted are these: read-out: pKa1.
Data set [6] in a line: The pKa2 value for the compound was determined by titrating in an aqueous solution (ISA). The class given is physicochemical. The note with it: read-out: pKa2.
Data set [7] in a line: The pKa3 value for the compound was determined by titrating in an aqueous solution (ISA). It is filed as physicochemical. The conditions noted are these: read-out: pKa3.

Molecules are shown by their SMILES.

Substance-P receptor, sequence (P30547 whole entry): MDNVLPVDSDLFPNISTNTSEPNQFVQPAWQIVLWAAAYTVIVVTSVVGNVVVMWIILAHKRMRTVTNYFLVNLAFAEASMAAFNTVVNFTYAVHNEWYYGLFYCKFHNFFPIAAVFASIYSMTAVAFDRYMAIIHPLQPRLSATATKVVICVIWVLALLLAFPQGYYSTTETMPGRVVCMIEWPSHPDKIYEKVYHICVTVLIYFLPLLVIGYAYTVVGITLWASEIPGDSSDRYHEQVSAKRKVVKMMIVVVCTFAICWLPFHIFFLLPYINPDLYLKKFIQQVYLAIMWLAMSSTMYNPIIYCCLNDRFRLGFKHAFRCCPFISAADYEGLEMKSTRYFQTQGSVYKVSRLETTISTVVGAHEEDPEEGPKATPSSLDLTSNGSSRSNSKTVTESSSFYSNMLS

Consider `COc1cc(C(=O)N2CCC(CCN3CCC(C(N)=O)(c4ccccc4)CC3)(c3ccc(F)c(F)c3)C2)cc(OC)c1OC` (configuration not stated), for which the IC50 (as a rule, the point on the concentration scale where inhibition reaches its midpoint) at Substance-P receptor is 9.76 nM.

`COc1cc(C(=O)N2CCC(CCN3CCC(C(N)=O)(c4ccccc4)CC3)(c3ccc(Cl)cc3)C2)cc(OC)c1OC` (configuration not stated) gave an IC50 on Substance-P receptor of 8.62 nM.

`COc1cc(C(=O)N2CCC(CCN3CCC(C(N)=O)(c4ccc(F)cc4)CC3)(c3ccc(Cl)c(Cl)c3)C2)cc(OC)c1OC` (configuration not stated) had an IC50 at Substance-P receptor of 13.5 nM.

For `COc1cc(C(=O)N2CCC(CCN3CCC(C(=O)N4CCOCC4)(c4ccccc4)CC3)(c3ccc(Cl)c(Cl)c3)C2)cc(OC)c1OC` (configuration not stated), the IC50 at Substance-P receptor is 8.72 nM.

`COc1cc(C(=O)N2CCC(CCN3CCC(C(N)=O)(c4cccnc4)CC3)(c3ccc(Cl)c(Cl)c3)C2)cc(OC)c1OC` (configuration not stated) gave an IC50 on Substance-P receptor of 8.14 nM.

In the case of `COc1cc(C(=O)N2CCC(CCN3CCC(C(N)=O)(c4ccccc4)CC3)(c3ccc(F)cc3)C2)cc(OC)c1OC` (configuration not stated), on Substance-P receptor, the IC50 came out at 23.3 nM.

Consider `COc1cc(C(=O)N2CCC(CCN3CCC(C(=O)N4CCN(C)CC4)(c4ccccc4)CC3)(c3ccc(Cl)c(Cl)c3)C2)cc(OC)c1OC` (configuration not stated), for which the IC50 on Substance-P receptor was found to be 4.51 nM.

Take `COc1cc(C(=O)N2CCC(CCN3CCC(C(N)=O)(c4ccncc4)CC3)(c3ccc(Cl)c(Cl)c3)C2)cc(OC)c1OC` (configuration not stated): the IC50 on Substance-P receptor worked out at 4.88 nM.

On to `COc1cccc(C2(C(N)=O)CCN(CCC3(c4ccc(Cl)c(Cl)c4)CCN(C(=O)c4cc(OC)c(OC)c(OC)c4)C3)CC2)c1` (configuration not stated), for which the IC50 on Substance-P receptor was determined as 8.49 nM.

With `COc1cc(C(=O)N2CCC(CCN3CCC(C(=O)NCCN4CCOCC4)(c4ccccc4)CC3)(c3ccc(Cl)c(Cl)c3)C2)cc(OC)c1OC` (configuration not stated), on Substance-P receptor, the IC50 came to 7.53 nM.

With `COc1cc(C(=O)N2CC[C@](CCN3CCC(C(N)=O)(c4ccccc4)CC3)(c3ccc(Cl)c(Cl)c3)C2)cc(OC)c1OC.Cl`, the Relative metabolic stability in the data set listed under Rattus norvegicus was 1. In addition, the logP (commonly the decadic logarithm of the partition coefficient of the neutral form, usually between octanol and water) in data set [1] is 3.4. This compound also returned a Relative permiability in data set [2] of 1. In addition, at 10 mg/kg the inhibition in vivo in the data set with Cavia porcellus was 60%. In data set [3], the concentration in solution (solubility) was 70 µg/mL. The same compound displayed an IC50 at Substance-P receptor of 3.11 nM. Also, the logD (usually the decadic logarithm of the distribution of all forms, ionised or not, between an organic phase and buffer at a given pH) in data set [4] (read-out: logD) was found to be 3.02. Moreover, in data set [5], the pKa is 7.64.

`COc1cc(C(=O)N2CC[C@](CCN3CCC(C(=O)N4CCOCC4)(c4ccccc4)CC3)(c3ccc(Cl)c(Cl)c3)C2)cc(OC)c1OC.Cl` had a Relative metabolic stability in the data set filed under Rattus norvegicus of 0.77. For the same compound, the logP in data set [1] (read-out: logP) was 4.3. In [2], this compound gave a Relative permiability of 3.7. In addition, in the data set with Cavia porcellus, the inhibition in vivo (in general, the share of the control response that was lost under treatment) at 10 mg/kg amounted to 39%. Also, the concentration in solution in data set [3] (solubility) came to 25 µg/mL. On Substance-P receptor, this compound came in with a half-inhibitory concentration (IC50) of 4.34 nM. Moreover, the logD in [4] (read-out: logD) was determined as 3.02. Moreover, the pKa in [5] amounted to 7.51.

On to `COc1cc(C(=O)N2CC[C@](CCN3CCC(C(=O)N4CCN(C)CC4)(c4cccnc4)CC3)(c3ccc(Cl)c(Cl)c3)C2)cc(OC)c1OC.Cl`, for which the logP in data set [1] (read-out: logP) is 3.2. Further, the Relative permiability in data set [2] stood at 1.2. The compound also returned an inhibition in vivo at 10 mg/kg in the data set with Cavia porcellus of 13%. For the same compound, the results for the pKa in data set [6], in data set [7] and in data set [5] were 7.76, 6.71 and 11.4, respectively. Further, the solubility (in general, the dissolved amount per volume that the medium holds) in [3] is 1200 µg/mL. The same compound yielded an IC50 on Substance-P receptor of 2.46 nM. In data set [4] (read-out: logD), the logD stood at 2.41.

Compound `COc1cc(C(=O)N2CC[C@](CCN3CCC(C(N)=O)(c4ccncc4)CC3)(c3ccc(Cl)c(Cl)c3)C2)cc(OC)c1OC.Cl` displayed a Relative metabolic stability in the data set listed under Rattus norvegicus of 0.78. In data set [1], this compound came in with a logP of 1.9. The same compound came in with a Relative permiability in data set [2] of 0.1. This compound also came in with an inhibition in vivo at 10 mg/kg in the data set on Cavia porcellus of 20%. Besides, the values for the pKa in [6] and in data set [5] were 4.14 and 7.53, respectively. The same compound displayed a solubility in data set [3] of 408 µg/mL. Also, on Substance-P receptor, the concentration for half-maximal inhibition (IC50) was 2.49 nM. The logD in [4] was 2.64.

Turning to `COc1cc(C(=O)N2CC[C@](CCN3CCC(C(=O)N4CCN(C)CC4)(c4ccccc4)CC3)(c3ccc(Cl)c(Cl)c3)C2)cc(OC)c1OC.Cl`, the Relative metabolic stability in the data set listed under Rattus norvegicus was determined as 0.43. For the same compound, the logP in data set [1] (read-out: logP) was determined as 4.7. The same compound registered a Relative permiability in [2] of 2.1. Besides, the inhibition in vivo at 10 mg/kg with Cavia porcellus turned out to be 31%. For the same compound, the pKa in data set [6] was found to be 6.86; in [5] it was 7.92. In addition, the solubility in [3] came to 426 µg/mL. On Substance-P receptor, the IC50 amounted to 3.94 nM. Also, the logD in data set [4] (read-out: logD) is 3.71.

In the data set filed under Rattus norvegicus, `COc1cc(C(=O)N2CC[C@](CCN3CCC(C(N)=O)(c4cccnc4)CC3)(c3ccc(Cl)c(Cl)c3)C2)cc(OC)c1OC.Cl` gave a Relative metabolic stability of 0.72. In addition, the logP in [1] is 1.9. This compound also gave a Relative permiability in data set [2] of 0.1. In the data set with Cavia porcellus, this compound came in with an inhibition in vivo at 10 mg/kg of 38%. Besides, the pKa in data set [6] came out at 3.97; in [5] it was 7.6. The same compound gave a solubility in data set [3] of 548 µg/mL. For the same compound, on Substance-P receptor, the IC50 was determined as 4.01 nM. In data set [4], the logD turned out to be 2.59.

On to `COc1cc(C(=O)N2CCC(CCN3CCC(C(N)=O)(c4ccccc4)CC3)(c3ccc(Cl)c(Cl)c3)C2)cc(OC)c1OC` (configuration not stated), for which the IC50 at Substance-P receptor stood at 5.88 nM.

As to `COc1cc(C(=O)N2CCC(CCN3CCC(C(N)=O)(c4ccccc4)CC3)(c3cccc(Cl)c3)C2)cc(OC)c1OC` (configuration not stated), the IC50 on Substance-P receptor was 10.7 nM.

`COc1cc(C(=O)N2CCC(CCN3CCC(C(N)=O)(c4ccccc4)CC3)(c3cccnc3)C2)cc(OC)c1OC` (configuration not stated): on Substance-P receptor, the IC50 came to 567 nM.

At Substance-P receptor, `COc1cc(C(=O)N2CCC(CCN3CCC(C(=O)N4CCCCC4)(c4ccccc4)CC3)(c3ccc(Cl)c(Cl)c3)C2)cc(OC)c1OC` (configuration not stated) displayed an IC50 of 23.2 nM.

In turn, `COc1ccc(C2(CCN3CCC(C(N)=O)(c4ccccc4)CC3)CCN(C(=O)c3cc(OC)c(OC)c(OC)c3)C2)cc1OC` (configuration not stated) displayed a half-maximal inhibitory concentration (IC50) on Substance-P receptor of 36.7 nM.
